Measured values as given in ChEMBL document CHEMBL1125668, “Synthesis and anti-HIV activity of 2-, 3-, and 4-substituted analogues of 1-[(2-hydroxyethoxy)methyl]-6-(phenylthio)thymine (HEPT)” (J Med Chem, 1991).

Experiments:
[1] = test system: Human immunodeficiency virus 2; assay: Inhibitory activity against HIV-2(LAV-2ROD strain) replication in MT-4 cells; format: functional, organism-based; details: Human immunodeficiency virus 2, MT4
[2] = test system: Human immunodeficiency virus 1; assay: Inhibitory activity against HIV-1 (HTLV-IIIB strain) replication in MT-4 cells; format: functional, organism-based; details: Human immunodeficiency virus 1, MT4
[3] = test system: Human immunodeficiency virus 1; assay: Cytotoxic concentration of compound required to reduce the viability of mock infected MT-4 cells against the HIV-1 (HTLV-IIIB)induced cytopathic effect; format: functional; details: Human immunodeficiency virus 1, MT4
[4] = test system: Human immunodeficiency virus 1; assay: Cytotoxic concentration of compound required to incorporate [5-3H]-Urd into RNA of mock infected peripheral blood lymphocytes in HIV-1 (HTLV-IIIB)by 50%; format: functional
[5] = test system: Human immunodeficiency virus 1; assay: Inhibitory activity against HIV-1 (HTLV-IIIB strain) replication in peripheral blood lymphocytes; format: functional, organism-based
[6] = test system: Human immunodeficiency virus 2; assay: Inhibitory activity against HIV-2(LAV-2EHO strain) replication in MT-4 cells; format: functional, organism-based; details: Human immunodeficiency virus 2, MT4
[7] = test system: Human immunodeficiency virus 1; assay: Inhibitory activity against HIV-1 (HTLV-IIIRF strain) replication in MT-4 cells; format: functional, organism-based; details: Human immunodeficiency virus 1, MT4

| Compound | EC50 [1] | EC50 [2] | CC50 [3] | CC50 [4] | EC50 [5] | EC50 [6] | EC50 [7] |
| --- | --- | --- | --- | --- | --- | --- | --- |
| Nc1ncnc2c1ncn2[C@H]1CC[C@@H](CO)O1 | 7.2 µM | 6.3 µM | > 500 µM | – | – | – | – |
| O=c1cc(Sc2ccccc2)n(COCCO)c(=S)[nH]1 | – | > 198 µM | 198 µM | – | – | – | – |
| Nc1cc(Sc2ccccc2)n(COCCO)c(=O)n1 | – | > 250 µM | > 250 µM | – | – | – | – |
| Cc1c(Sc2ccccc2)n(COCCO)c(=O)[nH]c1=S | – | > 27 µM | 27 µM | – | – | – | – |
| Cc1c(Sc2ccccc2)n(COCCO)c(=O)n(C)c1=O | – | > 374 µM | > 374 µM | – | – | – | – |
| Cc1c(Sc2ccccc2)n(COCCO)c(=O)n(Cc2ccccc2)c1=O | – | > 40 µM | 40 µM | – | – | – | – |
| Cc1c(N)nc(=O)n(COCCO)c1Sc1ccccc1 | – | > 91 µM | 91 µM | – | – | – | – |
| O=c1[nH]c(=S)cc(Sc2ccccc2)n1COCCO | – | > 4.1 µM | 4.1 µM | – | – | – | – |
| Cc1c(Sc2ccccc2)n(COCCO)c(=S)[nH]c1=O | > 100 µM | 0.98 µM | 123 µM | 292 µM | 2.9 µM | > 100 µM | 2.5 µM |
| Cc1c(Sc2ccccc2)n(COCCO)c(=O)[nH]c1=O [HEPT] | > 250 µM | 7 µM | 740 µM | 640 µM | 7.9 µM | > 250 µM | 8.1 µM |
| Cc1cn([C@H]2C[C@H](N=[N+]=[N-])[C@@H](CO)O2)c(=O)[nH]c1=O [ZIDOVUDINE] | 0.0028 µM | 0.003 µM | 7.8 µM | – | – | – | – |
